Reference: patent US20210038607A1, “OXADIAZOLYLTHIOPHENE DERIVATIVES USEFUL AS HISTONE DEACETYLASE INHIBITORS” (Karus Therapeutics Limited, priority 2018, published 2021)

Experiments:
Recombinant human HDAC6 = molecular target: T1, Recombinant human HDAC6 (Homo sapiens, UniProt Q9UBN7); assay: HDAC6 biochemical assay, AMC-labeled peptide substrate; details: HDAC6; read-out: HDAC Isoform IC50 (nM) 6
T1 construct: full length, MW=159 kDa; GST (N); host or cells: Sf9 insect cells (baculovirus)
T1 sequence (Q9UBN7 1-1215): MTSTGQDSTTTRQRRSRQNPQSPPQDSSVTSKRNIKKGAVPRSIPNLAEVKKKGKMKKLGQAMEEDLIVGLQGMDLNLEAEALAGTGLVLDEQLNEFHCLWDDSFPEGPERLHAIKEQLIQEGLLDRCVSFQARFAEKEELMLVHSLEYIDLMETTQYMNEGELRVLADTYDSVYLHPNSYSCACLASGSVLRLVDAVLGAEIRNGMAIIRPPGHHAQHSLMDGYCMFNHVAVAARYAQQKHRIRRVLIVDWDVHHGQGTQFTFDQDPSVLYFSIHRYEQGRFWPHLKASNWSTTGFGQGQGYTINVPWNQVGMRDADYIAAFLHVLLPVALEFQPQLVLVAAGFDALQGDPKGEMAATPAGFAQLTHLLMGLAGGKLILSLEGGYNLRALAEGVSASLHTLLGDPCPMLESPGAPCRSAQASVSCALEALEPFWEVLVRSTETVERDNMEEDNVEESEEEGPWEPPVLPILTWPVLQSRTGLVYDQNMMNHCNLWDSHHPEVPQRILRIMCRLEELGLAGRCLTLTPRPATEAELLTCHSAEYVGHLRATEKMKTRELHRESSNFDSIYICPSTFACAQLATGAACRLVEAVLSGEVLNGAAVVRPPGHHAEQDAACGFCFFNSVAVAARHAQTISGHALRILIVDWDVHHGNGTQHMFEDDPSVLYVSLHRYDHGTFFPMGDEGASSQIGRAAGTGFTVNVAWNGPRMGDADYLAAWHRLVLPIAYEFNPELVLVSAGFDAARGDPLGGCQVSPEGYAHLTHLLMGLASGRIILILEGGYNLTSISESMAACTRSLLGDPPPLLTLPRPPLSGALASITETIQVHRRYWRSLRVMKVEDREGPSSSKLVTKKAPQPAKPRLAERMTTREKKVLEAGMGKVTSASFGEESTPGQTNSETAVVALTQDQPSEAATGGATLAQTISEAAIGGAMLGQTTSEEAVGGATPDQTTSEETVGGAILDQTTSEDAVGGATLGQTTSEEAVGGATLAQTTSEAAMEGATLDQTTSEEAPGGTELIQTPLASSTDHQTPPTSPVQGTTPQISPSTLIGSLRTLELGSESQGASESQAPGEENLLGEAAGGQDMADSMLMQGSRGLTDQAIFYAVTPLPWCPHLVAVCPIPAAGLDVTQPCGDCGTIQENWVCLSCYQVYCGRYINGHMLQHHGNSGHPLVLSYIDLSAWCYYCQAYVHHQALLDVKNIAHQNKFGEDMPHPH
Method in brief: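 Two-step fluorogenic read-out: enzyme deacetylates 50 μM RHKK(Ac)AMC for 1 h at 30° C in pH 8.0 Tris buffer with BSA and 1% DMSO, then developer cleavage gives signal at Ex 360/Em 460. Enzyme: 0.3 ng/ul recombinant full-length human HDAC6, GST-tagged, Sf9-expressed.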

[1] = molecular target: T2, Complex of human HDAC3 and human NCOR2 (Homo sapiens, UniProt O15379); assay: HDAC3 biochemical assay, AMC-labeled peptide substrate; details: read-out: HDAC Isoform IC50 (nM) 3
T2 construct: full length with C-terminal His tag, MW=49.7 kDa; His (C); host or cells: baculovirus expression system (co-expressed)
Method in brief: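 Baculovirus-coexpressed His-tagged full-length HDAC3 with GST-NCOR2 (aa 395-489), 0.1 ng/ul, deacetylates 50 μM RHKK(Ac)AMC in Tris-HCl pH8.0 with BSA and 1% DMSO, 1 h at 30° C. Developer then cleaves deacetylated substrate; fluorescence read at 360/460 Ex/Em.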

Human HDAC8 = molecular target: T3, Human HDAC8 (Homo sapiens, UniProt Q9BY41); assay: HDAC8 biochemical assay, AMC-labeled peptide substrate; details: read-out: HDAC Isoform IC50 (nM) 8
T3 construct: full length with C-terminal His tag, MW=42.6 kDa; His (C); host or cells: baculovirus expression system
T3 sequence (Q9BY41 1-377): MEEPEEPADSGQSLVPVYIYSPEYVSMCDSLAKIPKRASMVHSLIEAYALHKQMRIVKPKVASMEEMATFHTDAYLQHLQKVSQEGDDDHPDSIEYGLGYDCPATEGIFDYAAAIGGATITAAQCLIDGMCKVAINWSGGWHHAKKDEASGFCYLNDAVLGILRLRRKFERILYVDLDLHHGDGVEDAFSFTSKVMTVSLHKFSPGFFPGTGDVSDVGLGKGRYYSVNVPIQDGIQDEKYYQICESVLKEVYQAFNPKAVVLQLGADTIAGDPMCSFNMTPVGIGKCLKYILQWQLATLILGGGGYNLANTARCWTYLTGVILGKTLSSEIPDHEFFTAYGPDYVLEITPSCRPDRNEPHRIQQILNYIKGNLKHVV
Method in brief: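 Full-length human HDAC8 with C-terminal His tag, baculovirus-expressed, 1 ng/ul, with 100 µM RHK(Ac)K(Ac)AMC substrate in Tris-HCl pH8.0 buffer with BSA, 1% DMSO. Incubated 2 h at 30° C, then developer added to cleave deacetylated substrate; fluorescence read at 360/460 Ex/Em.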

T2 sequence (O15379 whole entry, canonical isoform): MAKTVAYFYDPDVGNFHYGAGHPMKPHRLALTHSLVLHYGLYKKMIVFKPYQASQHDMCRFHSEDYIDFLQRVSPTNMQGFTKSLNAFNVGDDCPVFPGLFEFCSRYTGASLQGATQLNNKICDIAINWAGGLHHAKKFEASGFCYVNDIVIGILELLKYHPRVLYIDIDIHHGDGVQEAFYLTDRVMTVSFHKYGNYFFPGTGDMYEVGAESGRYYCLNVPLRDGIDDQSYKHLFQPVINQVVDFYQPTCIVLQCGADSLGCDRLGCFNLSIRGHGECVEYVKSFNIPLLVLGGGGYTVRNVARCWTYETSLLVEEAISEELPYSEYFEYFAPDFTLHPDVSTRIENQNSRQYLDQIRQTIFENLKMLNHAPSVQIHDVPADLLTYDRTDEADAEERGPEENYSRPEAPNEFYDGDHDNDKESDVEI
T2 sequence (Q9Y618 395-489 partner limits assumed): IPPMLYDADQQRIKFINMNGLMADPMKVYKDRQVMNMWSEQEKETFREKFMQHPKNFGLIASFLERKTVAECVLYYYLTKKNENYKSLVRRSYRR

Structure (SMILES)	IC50 (Recombinant human HDAC6) [nM]	IC50 [1] [nM]	IC50 (Human HDAC8) [nM]
COC1CN(C(=O)c2ccc(N(Cc3ccc(-c4noc(C(F)(F)F)n4)s3)c3cnccn3)nn2)C1 [Example DR, 6-(3-Methoxyazetidine-1-carbonyl)-N-(pyrazin-2-yl)-N-({5-[5-(trifluoromethyl)-1,2,4-oxadiazol-3-yl]thiophen-2-yl}methyl)pyridazin-3-amine]	≤ 500	≤ 10000	≤ 10000
O=C(c1cncc(N(Cc2ccc(-c3noc(C(F)(F)F)n3)s2)c2cnccn2)c1)N1CCOCC1 [Example GR, N-[5-(Morpholine-4-carbonyl)pyridin-3-yl]-N-({5-[5-(trifluoromethyl)-1,2,4-oxadiazol-3-yl]thiophen-2-yl}methyl)pyrazin-2-amine]	≤ 10000	> 10000	≤ 10000
NC(=O)c1ccc(N(Cc2ccc(-c3noc(C(F)(F)F)n3)s2)c2cnccn2)nn1 [Example DQ, 6-[(Pyrazin-2-yl)({5-[5-(trifluoromethyl)-1,2,4-oxadiazol-3-yl]thiophen-2-yl}methyl)amino]pyridazine-3-carboxamide]	≤ 500	≤ 10000	≤ 10000
O=C(O)c1cnnc(N(Cc2ccc(-c3noc(C(F)(F)F)n3)s2)c2cc(C(F)(F)F)cnn2)c1 [Example ES, 6-[({5-[5-(Trifluoromethyl)-1,2,4-oxadiazol-3-yl]thiophen-2-yl}methyl)[5-(trifluoromethyl)pyridazin-3-yl]amino]pyridazine-4-carboxylicacid]	≤ 500	> 10000	≤ 10000
FC(F)(F)c1nc(-c2ccc(CN(c3ccccn3)c3ccccn3)s2)no1 [Example U, N-(Pyridin-2-yl)-N-({5-[5-(trifluoromethyl)-1,2,4-oxadiazol-3-yl]thiophen-2-yl}methyl)pyridin-2-amine]	≤ 1000	> 10000	> 10000
O=C(c1cnnc(N(Cc2ccc(-c3noc(C(F)(F)F)n3)s2)c2cnccn2)c1)N1CC2CCC(C1)O2 [Example GA, 5-{8-Oxa-3-azabicyclo[3.2.1]octane-3-carbonyl}-N-(pyrazin-2-yl)-N-({5-[5-(trifluoromethyl)-1,2,4-oxadiazol-3-yl]thiophen-2-yl}methyl)pyridazin-3-amine]	≤ 500	> 10000	≤ 10000
FC(F)(F)c1nc(-c2ccc(CN(c3cnccn3)c3cc(N4CCCC4)cnn3)s2)no1 [Example FQ, N-(Pyrazin-2-yl)-5-(pyrrolidin-1-yl)-N-({5-[5-(trifluoromethyl)-1,2,4-oxadiazol-3-yl]thiophen-2-yl}methyl)pyridazin-3-amine]	≤ 1000	> 10000	≤ 10000
O=C(c1ccc(N(Cc2ccc(-c3noc(C(F)(F)F)n3)s2)c2cnccn2)nn1)N1C[C@@H]2C[C@H]1CO2 [Example FE, 6-[(1S,4S)-2-Oxa-5-azabicyclo[2.2.1]heptane-5-carbonyl]-N-(pyrazin-2-yl)-N-({5-[5-(trifluoromethyl)-1,2,4-oxadiazol-3-yl]thiophen-2-yl}methyl)pyridazin-3-amine]	≤ 500	≤ 10000	≤ 10000
FC(F)(F)c1nc(-c2ccc(CN(c3cnccn3)c3ncccn3)s2)no1 [Example AS, N-(Pyrimidin-2-yl)-N-({5-[5-(trifluoromethyl)-1,2,4-oxadiazol-3-yl]thiophen-2-yl}methyl)pyrazin-2-amine]	≤ 1000	> 10000	≤ 10000
CN(C)C1CN(C(=O)c2cnnc(N(Cc3ccc(-c4noc(C(F)(F)F)n4)s3)c3cnccn3)c2)C1 [Example FX, 5-[3-(Dimethylamino)azetidine-1-carbonyl]-N-(pyrazin-2-yl)-N-({5-[5-(trifluoromethyl)-1,2,4-oxadiazol-3-yl]thiophen-2-yl}methyl)pyridazin-3-amine]	≤ 500	> 10000	≤ 10000
